Tests used:
transient filament MCAO = assay: Transient filament MCAO (fMCAO) with tPA (Example 9)
Text: STAIR recommendations have been followed to avoid bias due to experimental design 10. Animal care and experimental protocols were approved by the Animal Ethics Committee of the INSERM-University Paris 7. Male Sprague-Dawley rats (Janvier, France) weighing 300 to 350 g, were anesthetized by isoflurane mixed with air (4% for induction; 1% during surgery), under spontaneous respiration. Two different models of focal cerebral ischemia were used as requested by STAIR recommendations: embolic (eMCAO) and transient filament MCAO (fMCAO). Focal cerebral ischemia was induced by intraluminal occlusion of the middle cerebral artery for 4 hours. eMCAO was induced by injection of a preformed clot at the origin of MCA as already described. Continuous laser Doppler flowmetry (VMS, Moor Instrument) was used to monitor regional cerebral perfusion to ensure the adequacy of filament MCA occlusion (perfusion decreased to <20% of preischemic baselines). […] Saline (2.0 mL/kg body weight) with or without recombinant tPA (10 mg/kg body weight; Actilyse, Boehringer Ingelheim) was administered (10% bolus, 90% continuous infusion) to rats via the right femoral vein. The relatively high dose of tPA was necessary to achieve a fibrinolytic effect in rats similar to that of thrombolytic therapy in humans. Continuous tPA or saline infusion (for 30 min. Harvard Apparatus Infusion Pump) started 4 hours after stroke onset, immediately before recanalization (after withdrawal of the filament in fMCAO), or 4 hours after clot placement in the MCA. After saline or tPA administration, rats were returned to their cages. Body temperature was maintained at 37° C.±0.5 with a heating pad for the duration of surgery. Glycemia, arterial blood pressure and blood gases were also monitored during surgery. […] Computer-based randomization was used to allocate drug regimens to each group. Experiments were blinded and the operator was unaware of group allocation during surgery and outcome assessment.
Seven coronal sections of the brain (2 mm in thickness) were stained with 2% 2,3,5-triphenyltetrazolium chloride (TTC, Sigma-Aldrich) for 20 minutes at room temperature. […] Volume calculation with oedema correction was performed blindly using the following formula: 100× (contralateral hemisphere volume−non infarct ipsilateral hemisphere volume)/contralateral hemisphere volume. […] Ten-micrometer sections were cut from the caudal site of all 7 slices and analyzed before TTC staining. Areas of hemorrhagic transformation from these 7 brain sections were measured using Photoshop software by semi-automatic selection of extravasated erythrocytes.

embolic MCAO = assay: Embolic MCAO (eMCAO) with tPA (Example 9)
Text: STAIR recommendations have been followed to avoid bias due to experimental design 10. Animal care and experimental protocols were approved by the Animal Ethics Committee of the INSERM-University Paris 7. Male Sprague-Dawley rats (Janvier, France) weighing 300 to 350 g, were anesthetized by isoflurane mixed with air (4% for induction; 1% during surgery), under spontaneous respiration. Two different models of focal cerebral ischemia were used as requested by STAIR recommendations: embolic (eMCAO) and transient filament MCAO (fMCAO). Focal cerebral ischemia was induced by intraluminal occlusion of the middle cerebral artery for 4 hours. eMCAO was induced by injection of a preformed clot at the origin of MCA as already described. Continuous laser Doppler flowmetry (VMS, Moor Instrument) was used to monitor regional cerebral perfusion to ensure the adequacy of filament MCA occlusion (perfusion decreased to <20% of preischemic baselines). […] Saline (2.0 mL/kg body weight) with or without recombinant tPA (10 mg/kg body weight; Actilyse, Boehringer Ingelheim) was administered (10% bolus, 90% continuous infusion) to rats via the right femoral vein. The relatively high dose of tPA was necessary to achieve a fibrinolytic effect in rats similar to that of thrombolytic therapy in humans. Continuous tPA or saline infusion (for 30 min. Harvard Apparatus Infusion Pump) started 4 hours after stroke onset, immediately before recanalization (after withdrawal of the filament in fMCAO), or 4 hours after clot placement in the MCA. […] Glycemia, arterial blood pressure and blood gases were also monitored during surgery. […]
Seven coronal sections of the brain (2 mm in thickness) were stained with 2% 2,3,5-triphenyltetrazolium chloride (TTC, Sigma-Aldrich) for 20 minutes at room temperature. […] Ten-micrometer sections were cut from the caudal site of all 7 slices and analyzed before TTC staining. Areas of hemorrhagic transformation from these 7 brain sections were measured using Photoshop software by semi-automatic selection of extravasated erythrocytes.

[1] = acute phase of stroke; cited from earlier work
blood-brain barrier = assay: IgG extravasation in filament MCAO model; type: in vivo, Sprague-Dawley rats; details: tPA vs saline; combination vs tPA alone
Experimental: Blood-brain barrier permeability was evaluated in vivo by using fluorescence detection of IgG extravasation in filament MCAO model. At 24 hours after stroke, rats were deeply anesthetized with pentobarbital and transcardially perfused with saline. Brains were removed, cut in 2 mm coronal sections, embedded with OCT and frozen. Ten μm sections (at +0.70 mm posterior to bregma) were prepared. Sections were prepared and incubated overnight at 4° C. with donkey anti-rat IgG antibodies (5 μg/mL, Molecular Probes) labelled with Alexa Fluor® 488. IgG extravasation was quantified semi-automatically with morphometry software (Histolab 6.1.5, Microvision Instruments).

hCMEC/D3 cells = assay: In vitro blood-brain barrier model with tPA under OGD; type: cell-based, human
Experimental: The human brain endothelial cell line hCMEC/D3 kindly provided by Dr. P. O. Couraud. Cells were cultured in complete EBM-2 medium (Endothelial Basal Medium+2.5% of fetal calf serum and supplements containing hydrocortisone and growth factors).
OGD (Oxygen Glucose Deprivation) conditions were obtained by using DMEM medium without glucose (Gibco) versus 1 g/L glucose DMEM for non-OGD conditions. Oxygen deprivation was obtained by using a hypoxia chamber (Billups-Rothenberg) where atmospheric air was replaced by a mix of gas (0% O2, 5% CO2, 95% N2, Air Product). DMEM used for OGD conditions was equilibrated with the same mix.
For permeability experiments, hCMEC/D3 cells were seeded at 5.105 cells/cm^2 on collagen inserts (PCF filters, 0.4 μm pore size, Millicell 24-well plates, Millipore) in complete EBM-2. Cells were grown for 14 days post-confluence before use. Permeability was assessed using fluorescein isothiocyanate (FITC) labelled dextran (70 kDa molecular weight). […] 200 μL from the collecting wells were transferred into a 96-well plate, and the dextran fluorescence was determined on the microplate reader at 485 nm (excitation) and 538 nm (emission). Fluorescence was converted to concentration using a standard curve. The volume cleared was calculated from the ratio of dextran concentration in each sample to the applied concentration (0.385 mg/mL). The endothelial permeability coefficient Pe (cm/min) was calculated by determining the volumes of clearance of dextran with or without cells. The cleared volume was calculated from the […], and plotted against time. PS (permeability surface) was calculated from 1/PS=1/PSe−1/PSf, where PSe is the slope of clearance in the presence of cells and PSf is the slope for a blank insert (cell free)16. […]
For detection of fibronectin in HCMEC/D3 cell culture supernatant, 5 μL of conditioned medium were analyzed by SDS-8% PAGE. […]

[2] = test system: collagen IV (basal lamina of cerebral microvessels); assay: Collagen IV immunoreactivity in cerebral microvessels (filament MCAO); type: in vivo, Sprague-Dawley rats; details: 24 hours after stroke; combination relative to tPA alone
Experimental: Frozen sections were fixed with 3.7% paraformaldehyde and blocked with 10% goat serum. Sections were incubated overnight at 4° C. with a rabbit polyclonal to collagen IV (2 μg/mL, Abcam) for detection of basal lamina of intracerebral vessels. FITC-conjugated Bandeiraea Simplicifolia Lectin I (isolectin B4) (5 μg/mL, Vector Laboratories) was used to visualize endothelial cells. Non-immune rabbit IgG were included in each set of experiments as primary antibody to test the specificity of the signal. We used Alexa-Fluor® 555 as secondary antibodies. Immunostaining was analysed with a fluorescent microscope interfaced with a digital capture system. All immunohistological evaluations were carried out by an observer who was blinded to the treatment. For semi-quantification of the collagen type IV expression, three fields of each territory were acquired using a×10 objective. A threshold of fluorescence intensity, which encompasses positive vessels on the contralateral image, was applied to each corresponding ipsilateral image. IHC analysis was performed in filament MCAO model.

[3] = test system: elastase-treated mice (emphysema); assay: Elastase-induced emphysema in mice; type: in vivo; details: HDL 75 mg/kg; AAT alone 3.75 mg/kg; i.v., 4 injections
Experimental: First, large amount of HDL purified from human plasma by ultracentrifugation was pooled in order to work with the same batch of HDL and HDL enriched with AAT. AAT was incubated for 16 hours at 37° C. under gentle agitation. […] A Western-Blot for AAT and apolipoprotein A-I was performed on HDL and HDL loaded with AAT. […] Anti-elastase assay was performed in parallel, corroborating the results obtained by WB. These experiments quantify AAT in enriched HDL. The same amount of free AAT was then injected in a control group. The aim of this experiment is to test whether HDL-AAT prevent more the development of emphysema relative to AAT injected alone. HDL containing naturally AAT are also injected in another group.
45 mice are subjected to intra-tracheal elastase instillation.
The mice were sacrificed 28 day after initial instillation of elastase, and the emphysema was semi-quantified by scoring alveoli destruction (double blind determination by two independent pathologists).

Row | Substance | edema surrounding ischemic cerebral vessels (transient filament MCAO; compared to HDL+tPA group) | infarct volume (transient filament MCAO; fMCAO, 24 hours, tPA and HDL alone vs saline, combination vs tPA alone) | mortality rate (transient filament MCAO; fMCAO, tPA 10 mg/kg 4 hours after stroke onset, 24 hours) [%] | mortality (transient filament MCAO; fMCAO, tPA and HDL alone vs saline, combination vs tPA alone) | infarct volume (embolic MCAO; 24 hours, tPA and HDL alone vs saline, combination vs tPA alone) | mortality rate (embolic MCAO; tPA 10 mg/kg 4 hours after stroke onset, 24 hours) [%] | mortality (embolic MCAO; tPA and HDL alone vs saline, combination vs tPA alone) | increase in symptomatic cerebral haemorrhage [1] [fold] | IgG extravasation in the ischemic hemisphere (blood-brain barrier) | VE-cadherin intercellular junction organization (hCMEC/D3 cells; 200 nM tPA and/or 400 μg/mL HDL) | release of soluble fibronectin/fragments in supernatants (hCMEC/D3 cells; 200 nM tPA and/or 400 μg/mL HDL, Western Blot) | BBB permeability in vitro (hCMEC/D3 cells; 200 nM tPA, 4 hours of stimulation) | number of collagen IV immunoreactive vessels in the infarcted area [2] | protective effect on development of emphysema [3]
1 | tPA: recombinant tissue plasminogen activator, thrombolytic drug approved for stroke | Large edema | increased infarct volume | 86.05 | increased | increased infarct volume | 56.25 | increased | 10 | significantly increased IgG extravasation | induced a disorganization of intercellular junctions | induced an important release of fibronectin/fragments | neither tPA nor OGD were sufficient to induce increased BBB permeability | decreased | –
2 | AAT: 52 kD glycoprotein, natural inhibitor of neutrophil elastase | – | – | – | – | – | – | – | – | – | – | – | – | – | mild protective effect

— patent US9415094B2, “Method of reducing side effects associated with administration of tissue plasminogen activator (tPA)” (INSERM (Institut National de la Sante et de la Recherche …, priority 2009, dated 2016)
